Test results: ChEMBL document CHEMBL1144455, “A small molecule-kinase interaction map for clinical kinase inhibitors” (Nat Biotechnol, 2005)

Key:
[1] = molecular target: T1, Serine/threonine-protein kinase 36 (Homo sapiens, UniProt Q9NRP7)
T1 sequence (Q9NRP7 whole entry): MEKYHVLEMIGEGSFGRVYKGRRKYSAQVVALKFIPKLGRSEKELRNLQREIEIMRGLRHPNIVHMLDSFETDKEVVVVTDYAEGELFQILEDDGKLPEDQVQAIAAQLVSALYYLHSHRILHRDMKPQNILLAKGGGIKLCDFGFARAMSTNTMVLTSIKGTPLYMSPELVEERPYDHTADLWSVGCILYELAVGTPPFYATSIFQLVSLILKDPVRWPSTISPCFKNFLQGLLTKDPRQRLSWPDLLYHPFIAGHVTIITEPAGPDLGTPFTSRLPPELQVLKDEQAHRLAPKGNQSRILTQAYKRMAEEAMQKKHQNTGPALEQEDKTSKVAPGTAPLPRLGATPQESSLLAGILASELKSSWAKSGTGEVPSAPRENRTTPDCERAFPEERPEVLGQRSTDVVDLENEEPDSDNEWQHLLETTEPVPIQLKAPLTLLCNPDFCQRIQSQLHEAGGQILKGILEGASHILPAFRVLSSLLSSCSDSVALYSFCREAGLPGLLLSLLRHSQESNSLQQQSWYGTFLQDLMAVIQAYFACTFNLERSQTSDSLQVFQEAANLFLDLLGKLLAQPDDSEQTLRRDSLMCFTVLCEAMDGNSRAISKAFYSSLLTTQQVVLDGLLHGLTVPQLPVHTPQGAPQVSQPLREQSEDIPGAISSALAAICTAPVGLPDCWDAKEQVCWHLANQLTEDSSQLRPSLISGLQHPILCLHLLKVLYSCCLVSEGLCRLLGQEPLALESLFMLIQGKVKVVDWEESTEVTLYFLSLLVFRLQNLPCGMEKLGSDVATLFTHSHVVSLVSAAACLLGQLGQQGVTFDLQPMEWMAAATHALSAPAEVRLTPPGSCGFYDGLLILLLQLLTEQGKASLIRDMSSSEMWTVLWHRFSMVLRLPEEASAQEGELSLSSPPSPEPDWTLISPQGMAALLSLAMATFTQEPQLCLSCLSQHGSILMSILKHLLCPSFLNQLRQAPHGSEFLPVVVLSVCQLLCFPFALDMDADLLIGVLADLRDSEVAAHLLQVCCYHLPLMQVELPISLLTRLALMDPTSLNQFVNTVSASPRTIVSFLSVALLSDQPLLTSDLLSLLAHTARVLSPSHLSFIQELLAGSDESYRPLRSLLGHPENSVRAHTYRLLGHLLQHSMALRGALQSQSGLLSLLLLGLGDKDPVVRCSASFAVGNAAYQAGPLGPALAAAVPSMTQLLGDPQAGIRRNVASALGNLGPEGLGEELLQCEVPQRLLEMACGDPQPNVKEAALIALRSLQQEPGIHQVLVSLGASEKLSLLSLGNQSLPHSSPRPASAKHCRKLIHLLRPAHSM

[2] = molecular target: T2, Serine/threonine-protein kinase ULK3 (Mus musculus, UniProt Q3U3Q1)
T2 sequence (Q3U3Q1 whole entry): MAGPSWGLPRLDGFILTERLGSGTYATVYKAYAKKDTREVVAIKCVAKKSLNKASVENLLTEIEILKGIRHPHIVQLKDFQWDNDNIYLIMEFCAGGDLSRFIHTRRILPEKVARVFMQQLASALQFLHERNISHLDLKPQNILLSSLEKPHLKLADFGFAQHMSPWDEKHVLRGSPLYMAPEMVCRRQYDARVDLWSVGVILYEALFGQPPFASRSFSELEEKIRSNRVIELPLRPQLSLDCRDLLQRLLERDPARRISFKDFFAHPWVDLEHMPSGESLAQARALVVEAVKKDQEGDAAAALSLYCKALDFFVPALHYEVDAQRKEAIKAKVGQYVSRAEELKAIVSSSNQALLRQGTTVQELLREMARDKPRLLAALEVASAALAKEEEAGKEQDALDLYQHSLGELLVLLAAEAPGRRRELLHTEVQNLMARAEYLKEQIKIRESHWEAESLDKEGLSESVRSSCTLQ

[3] = molecular target: Tyrosine-protein kinase SYK (Homo sapiens, UniProt P43405)
[4] = molecular target: T3, Ephrin type-A receptor 8 (Homo sapiens, UniProt P29322)
T3 sequence (P29322 whole entry): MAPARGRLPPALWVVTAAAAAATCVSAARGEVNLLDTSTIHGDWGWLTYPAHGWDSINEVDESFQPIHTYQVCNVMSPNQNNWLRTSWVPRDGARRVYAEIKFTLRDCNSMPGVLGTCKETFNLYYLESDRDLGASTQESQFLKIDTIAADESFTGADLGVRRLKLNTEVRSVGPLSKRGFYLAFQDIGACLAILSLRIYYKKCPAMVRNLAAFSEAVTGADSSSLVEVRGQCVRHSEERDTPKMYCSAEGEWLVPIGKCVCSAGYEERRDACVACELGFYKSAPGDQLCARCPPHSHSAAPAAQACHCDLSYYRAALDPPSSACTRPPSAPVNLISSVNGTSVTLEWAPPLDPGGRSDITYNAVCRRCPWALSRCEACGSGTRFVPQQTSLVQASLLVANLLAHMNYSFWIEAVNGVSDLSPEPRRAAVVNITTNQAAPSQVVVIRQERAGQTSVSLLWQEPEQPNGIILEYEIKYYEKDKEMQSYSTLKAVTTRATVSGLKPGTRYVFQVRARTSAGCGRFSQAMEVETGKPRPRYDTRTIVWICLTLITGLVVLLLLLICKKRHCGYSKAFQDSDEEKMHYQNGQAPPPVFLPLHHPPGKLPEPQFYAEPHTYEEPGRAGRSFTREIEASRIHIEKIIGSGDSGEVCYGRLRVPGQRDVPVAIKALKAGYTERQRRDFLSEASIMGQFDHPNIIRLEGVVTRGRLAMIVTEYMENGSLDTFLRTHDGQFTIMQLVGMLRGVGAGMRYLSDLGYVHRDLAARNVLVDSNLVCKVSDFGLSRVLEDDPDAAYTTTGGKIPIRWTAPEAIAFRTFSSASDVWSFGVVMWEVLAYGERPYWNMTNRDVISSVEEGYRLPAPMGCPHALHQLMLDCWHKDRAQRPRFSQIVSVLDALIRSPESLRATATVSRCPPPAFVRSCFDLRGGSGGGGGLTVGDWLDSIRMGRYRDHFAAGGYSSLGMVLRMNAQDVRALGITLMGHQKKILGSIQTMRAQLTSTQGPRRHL

[5] = molecular target: Fibroblast growth factor receptor 2 (Homo sapiens, UniProt P21802)
[6] = molecular target: Tyrosine-protein kinase CSK (Homo sapiens, UniProt P41240)
[7] = molecular target: Serine/threonine-protein kinase PAK 6 (Homo sapiens, UniProt Q9NQU5)
[8] = molecular target: Casein kinase I isoform gamma-1 (Homo sapiens, UniProt Q9HCP0)

Measured: Kd

Chain of Fibroblast growth factor receptor 2 (P21802 whole entry): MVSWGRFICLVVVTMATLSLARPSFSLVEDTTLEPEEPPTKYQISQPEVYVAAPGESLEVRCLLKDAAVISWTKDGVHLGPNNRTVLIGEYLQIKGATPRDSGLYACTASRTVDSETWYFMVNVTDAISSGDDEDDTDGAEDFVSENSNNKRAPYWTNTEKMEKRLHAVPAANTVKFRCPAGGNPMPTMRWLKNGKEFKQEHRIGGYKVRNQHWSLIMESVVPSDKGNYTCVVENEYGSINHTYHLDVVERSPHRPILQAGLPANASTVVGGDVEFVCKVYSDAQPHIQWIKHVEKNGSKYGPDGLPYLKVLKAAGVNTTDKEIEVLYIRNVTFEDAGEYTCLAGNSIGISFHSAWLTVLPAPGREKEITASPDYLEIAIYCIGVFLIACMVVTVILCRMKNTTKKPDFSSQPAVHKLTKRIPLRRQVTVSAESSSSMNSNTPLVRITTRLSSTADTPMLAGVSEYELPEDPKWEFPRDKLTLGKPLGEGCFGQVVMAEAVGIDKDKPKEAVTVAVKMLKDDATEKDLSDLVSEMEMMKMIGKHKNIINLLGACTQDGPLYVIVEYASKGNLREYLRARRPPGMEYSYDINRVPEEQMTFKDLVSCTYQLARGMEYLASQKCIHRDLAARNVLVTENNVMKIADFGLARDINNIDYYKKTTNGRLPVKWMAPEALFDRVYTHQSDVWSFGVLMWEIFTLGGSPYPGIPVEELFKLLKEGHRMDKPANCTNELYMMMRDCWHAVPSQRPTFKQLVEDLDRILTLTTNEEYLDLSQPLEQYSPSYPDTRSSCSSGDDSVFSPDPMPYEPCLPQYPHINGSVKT
Chain of Serine/threonine-protein kinase PAK 6 (Q9NQU5 whole entry, canonical isoform): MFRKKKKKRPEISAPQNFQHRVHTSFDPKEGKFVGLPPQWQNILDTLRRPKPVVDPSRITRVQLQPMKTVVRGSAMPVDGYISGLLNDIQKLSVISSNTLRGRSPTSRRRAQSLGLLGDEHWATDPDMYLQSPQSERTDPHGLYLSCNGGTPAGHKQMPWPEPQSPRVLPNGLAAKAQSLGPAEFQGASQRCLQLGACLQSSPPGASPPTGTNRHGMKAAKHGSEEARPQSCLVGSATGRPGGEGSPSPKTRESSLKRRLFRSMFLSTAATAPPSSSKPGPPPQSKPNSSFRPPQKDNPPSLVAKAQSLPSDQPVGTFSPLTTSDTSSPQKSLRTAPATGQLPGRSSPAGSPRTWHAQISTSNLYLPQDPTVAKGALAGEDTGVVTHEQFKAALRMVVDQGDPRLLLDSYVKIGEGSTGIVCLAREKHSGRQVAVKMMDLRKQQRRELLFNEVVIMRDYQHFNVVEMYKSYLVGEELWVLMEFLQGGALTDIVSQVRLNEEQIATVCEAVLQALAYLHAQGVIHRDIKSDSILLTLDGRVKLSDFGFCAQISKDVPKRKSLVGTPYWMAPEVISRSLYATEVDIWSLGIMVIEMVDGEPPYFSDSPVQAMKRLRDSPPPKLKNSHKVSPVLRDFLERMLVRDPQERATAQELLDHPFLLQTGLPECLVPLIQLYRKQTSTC
Chain of Casein kinase I isoform gamma-1 (Q9HCP0 whole entry, canonical isoform): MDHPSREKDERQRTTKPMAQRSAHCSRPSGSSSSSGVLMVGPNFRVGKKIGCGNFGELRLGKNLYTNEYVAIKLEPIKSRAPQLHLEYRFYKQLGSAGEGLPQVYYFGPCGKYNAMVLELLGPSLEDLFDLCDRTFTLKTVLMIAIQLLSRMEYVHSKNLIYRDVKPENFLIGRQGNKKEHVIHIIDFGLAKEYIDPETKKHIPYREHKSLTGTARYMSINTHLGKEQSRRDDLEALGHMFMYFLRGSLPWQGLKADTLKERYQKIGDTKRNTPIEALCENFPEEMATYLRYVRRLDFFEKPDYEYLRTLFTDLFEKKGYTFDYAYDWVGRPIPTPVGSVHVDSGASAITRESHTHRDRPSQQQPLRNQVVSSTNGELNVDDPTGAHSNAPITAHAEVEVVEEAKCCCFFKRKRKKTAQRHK
Chain of Tyrosine-protein kinase CSK (P41240 whole entry): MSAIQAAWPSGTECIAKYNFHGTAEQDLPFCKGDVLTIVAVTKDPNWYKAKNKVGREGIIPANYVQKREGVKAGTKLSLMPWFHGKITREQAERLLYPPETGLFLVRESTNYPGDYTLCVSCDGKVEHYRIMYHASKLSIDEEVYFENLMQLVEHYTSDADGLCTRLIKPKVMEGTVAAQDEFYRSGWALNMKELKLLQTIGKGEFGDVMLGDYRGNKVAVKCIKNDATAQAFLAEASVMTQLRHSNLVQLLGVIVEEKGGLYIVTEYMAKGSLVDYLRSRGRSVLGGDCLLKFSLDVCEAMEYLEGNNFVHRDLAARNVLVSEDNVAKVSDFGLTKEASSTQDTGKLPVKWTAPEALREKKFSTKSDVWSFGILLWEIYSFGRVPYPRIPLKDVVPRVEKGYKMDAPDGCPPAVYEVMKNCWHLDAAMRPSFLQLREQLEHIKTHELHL

CC[C@H](CO)Nc1nc(NCc2ccccc2)c2ncn(C(C)C)c2n1 [SELICICLIB]
Not Active: [1] | [2] | [3] | [4] | [5] | [6] | [7]

COc1cc2c(N3CCN(C(=O)Nc4ccc(OC(C)C)cc4)CC3)ncnc2cc1OCCCN1CCCCC1 [TANDUTINIB]
Not Active: [1] | [8] | [2] | [3] | [4] | [5] | [6] | [7]

Oc1ccc(-c2nc(-c3ccc(F)cc3)c(-c3ccncc3)[nH]2)cc1 [SB-202190]
Not Active: [8] | [2] | [3] | [4] | [5] | [6] | [7]

C[S+]([O-])c1ccc(-c2nc(-c3ccc(F)cc3)c(-c3ccncc3)[nH]2)cc1 (stereo unspecified) [SB-203580]
Not Active: [8] | [2] | [3] | [4] | [5] | [6] | [7]

CCOc1cc2ncc(C#N)c(Nc3ccc(F)c(Cl)c3)c2cc1NC(=O)/C=C/CN(C)C [PELITINIB]
Not Active: [8] | [5] | [7]

Cc1ccc(NC(=O)c2ccc(CN3CCN(C)CC3)cc2)cc1Nc1nccc(-c2cccnc2)n1 [IMATINIB]
Not Active: [1] | [8] | [2] | [5] | [6] | [7]

O=c1ncn2nc(Sc3ccc(F)cc3F)ccc2c1-c1c(Cl)cccc1Cl [NEFLAMAPIMOD]
Not Active: [1] | [8] | [2] | [3] | [5] | [6] | [7]

Oc1c2ccccc2c2c3c(cccc13)N=N2 [SP-600125]
Not Active: [1] | [4] | [5] | [6] | [7]

C#Cc1cccc(Nc2ncnc3cc(OCCOC)c(OCCOC)cc23)c1 [ERLOTINIB]
Not Active: [1] | [8] | [3] | [4] | [6] | [7]
